Source: PMC12543283, “TastepepAI: An artificial intelligence platform for taste peptide de novo design” (PLOS Computational Biology, 2025)
Ends that are not written are not given here.

Experiments:
[1] = test system: human umbilical vein endothelial cells (HUVEC)
[2] = test system: human bronchial epithelial cells (BEAS-2B)
[3] = Electronic tongue analysis (Taste-Sensing System SA 402B); design: unit not given here; details: reference solution 30 mM KCl + 0.3 mM tartaric acid as baseline, first measurement excluded; for Umami: sensor AAE; for Umami / Bitter / Sweet: detection threshold 0, room temperature; for Umami / Bitter / Sour / Salty: four replicates; for Sour: detection threshold -13, room temperature; for Salty: detection threshold -6, room temperature; for Sweet: measured five times
How it was run: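 Samples were tested at 0.1 and 1.0 mg/mL on an SA 402B e-tongue fitted with sourness, saltiness, bitterness, sweetness and umami sensors, with 30 mM KCl/0.3 mM tartaric acid as reference and baseline. Thresholds were −13 for sour, −6 for salty and 0 for the rest. Runs at room temperature: four replicates, five for sweetness, first reading discarded.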

[4] = test system: human pancreatic ductal epithelial cells (HPNE)
[5] = test system: human embryonic kidney cells (HEK293T)

With SAANT [TaPep31] the “Average cell viability, HUVEC” value [1] was 99.39, the “Cell viability, HUVEC, Data1” value [1] was 91.56 and the “Cell viability, HUVEC, Data2” value [1] was 100.67. The “Cell viability, HUVEC, Data3” value [1] was 105.93, the “Average cell viability, BEAS-2B” value [2] was 110.70 and the “Cell viability, BEAS-2B, Data1” value [2] was 118.64. For the same substance, the “Cell viability, BEAS-2B, Data2” value [2] was 100.10, the “Cell viability, BEAS-2B, Data3” value [2] was 113.36 and the Umami ([3]; peptide 0.1 mg/mL) was 1.69. For the same substance, the Umami ([3]; peptide 1 mg/mL) was -4.82, the Bitter ([3]; sensor C00, peptide 0.1 mg/mL) was 7.84 and the Bitter ([3]; sensor C00, peptide 1 mg/mL) was 2.76. For the same substance, the Sour ([3]; sensor CA0, peptide 0.1 mg/mL) was -3.49, the Sour ([3]; sensor CA0, peptide 1 mg/mL) was 12.70 and the Salty ([3]; sensor CT0, peptide 0.1 mg/mL) was -19.57. For the same substance, the Salty ([3]; sensor CT0, peptide 1 mg/mL) was 12.57, the Sweet ([3]; sensor GL1, peptide 0.1 mg/mL) was 8.41 and the Sweet ([3]; sensor GL1, peptide 1 mg/mL) was -5.90. The “Average cell viability, HPNE” value [4] was 100.40, the “Cell viability, HPNE, Data1” value [4] was 105.82 and the “Cell viability, HPNE, Data2” value [4] was 112.81. The “Cell viability, HPNE, Data3” value [4] was 82.56, the “Average cell viability, HEK293T” value [5] was 99.34 and the “Cell viability, HEK293T, Data1” value [5] was 102.02. For the same substance, the “Cell viability, HEK293T, Data2” value [5] was 100.41 and the “Cell viability, HEK293T, Data3” value [5] was 95.58.
For SEGIQ [TaPep70], the “Average cell viability, HUVEC” value [1] was 107.56, the “Cell viability, HUVEC, Data1” value [1] was 113.68 and the “Cell viability, HUVEC, Data2” value [1] was 110.32. The “Cell viability, HUVEC, Data3” value [1] was 98.67, the “Average cell viability, BEAS-2B” value [2] was 104.32 and the “Cell viability, BEAS-2B, Data1” value [2] was 109.87. For the same substance, the “Cell viability, BEAS-2B, Data2” value [2] was 102.79, the “Cell viability, BEAS-2B, Data3” value [2] was 100.30 and the Umami ([3]; peptide 0.1 mg/mL) was 1.63. The Umami ([3]; peptide 1 mg/mL) was -4.00, the Bitter ([3]; sensor C00, peptide 0.1 mg/mL) was 7.38 and the Bitter ([3]; sensor C00, peptide 1 mg/mL) was 3.77. For the same substance, the Sour ([3]; sensor CA0, peptide 0.1 mg/mL) was -3.33, the Sour ([3]; sensor CA0, peptide 1 mg/mL) was 10.04 and the Salty ([3]; sensor CT0, peptide 0.1 mg/mL) was -20.29. It also gave a Salty ([3]; sensor CT0, peptide 1 mg/mL) of 7.83, a Sweet ([3]; sensor GL1, peptide 0.1 mg/mL) of 6.55 and a Sweet ([3]; sensor GL1, peptide 1 mg/mL) of -3.62. The “Average cell viability, HPNE” value [4] was 105.19, the “Cell viability, HPNE, Data1” value [4] was 112.61 and the “Cell viability, HPNE, Data2” value [4] was 102.83. For the same substance, the “Cell viability, HPNE, Data3” value [4] was 100.13, the “Average cell viability, HEK293T” value [5] was 99.37 and the “Cell viability, HEK293T, Data1” value [5] was 100.88. For the same substance, the “Cell viability, HEK293T, Data2” value [5] was 96.25 and the “Cell viability, HEK293T, Data3” value [5] was 100.98.
For SKKEV [TaPep65], the “Average cell viability, HUVEC” value [1] was 96.89, the “Cell viability, HUVEC, Data1” value [1] was 105.14 and the “Cell viability, HUVEC, Data2” value [1] was 94.76. For the same substance, the “Cell viability, HUVEC, Data3” value [1] was 90.77, the “Average cell viability, BEAS-2B” value [2] was 100.70 and the “Cell viability, BEAS-2B, Data1” value [2] was 99.80. For the same substance, the “Cell viability, BEAS-2B, Data2” value [2] was 89.83, the “Cell viability, BEAS-2B, Data3” value [2] was 112.46 and the Umami ([3]; peptide 0.1 mg/mL) was 1.85. The Umami ([3]; peptide 1 mg/mL) was -4.04, the Bitter ([3]; sensor C00, peptide 0.1 mg/mL) was 7.27 and the Bitter ([3]; sensor C00, peptide 1 mg/mL) was 4.02. It also gave a Sour ([3]; sensor CA0, peptide 0.1 mg/mL) of -3.95, a Sour ([3]; sensor CA0, peptide 1 mg/mL) of 10.48 and a Salty ([3]; sensor CT0, peptide 0.1 mg/mL) of -17.33. The Salty ([3]; sensor CT0, peptide 1 mg/mL) was 11.34, the Sweet ([3]; sensor GL1, peptide 0.1 mg/mL) was 2.66 and the Sweet ([3]; sensor GL1, peptide 1 mg/mL) was -3.79. For the same substance, the “Average cell viability, HPNE” value [4] was 94.98, the “Cell viability, HPNE, Data1” value [4] was 94.04 and the “Cell viability, HPNE, Data2” value [4] was 105.12. The “Cell viability, HPNE, Data3” value [4] was 85.76, the “Average cell viability, HEK293T” value [5] was 97.48 and the “Cell viability, HEK293T, Data1” value [5] was 94.54. The “Cell viability, HEK293T, Data2” value [5] was 99.27 and the “Cell viability, HEK293T, Data3” value [5] was 98.61.
In the case of SLEYEFK [TaPep38], the “Average cell viability, HUVEC” value [1] was 107.74, the “Cell viability, HUVEC, Data1” value [1] was 112.64 and the “Cell viability, HUVEC, Data2” value [1] was 110.32. The “Cell viability, HUVEC, Data3” value [1] was 100.27, the “Average cell viability, BEAS-2B” value [2] was 103.09 and the “Cell viability, BEAS-2B, Data1” value [2] was 93.12. The “Cell viability, BEAS-2B, Data2” value [2] was 112.36, the “Cell viability, BEAS-2B, Data3” value [2] was 103.79 and the Umami ([3]; peptide 0.1 mg/mL) was 2.66. For the same substance, the Umami ([3]; peptide 1 mg/mL) was -3.92, the Bitter ([3]; sensor C00, peptide 0.1 mg/mL) was 7.67 and the Bitter ([3]; sensor C00, peptide 1 mg/mL) was 3.12. For the same substance, the Sour ([3]; sensor CA0, peptide 0.1 mg/mL) was -5.92, the Sour ([3]; sensor CA0, peptide 1 mg/mL) was 9.17 and the Salty ([3]; sensor CT0, peptide 0.1 mg/mL) was -19.89. The Salty ([3]; sensor CT0, peptide 1 mg/mL) was 10.85, the Sweet ([3]; sensor GL1, peptide 0.1 mg/mL) was 7.68 and the Sweet ([3]; sensor GL1, peptide 1 mg/mL) was -5.11. The “Average cell viability, HPNE” value [4] was 96.57, the “Cell viability, HPNE, Data1” value [4] was 86.36 and the “Cell viability, HPNE, Data2” value [4] was 94.14. For the same substance, the “Cell viability, HPNE, Data3” value [4] was 109.22, the “Average cell viability, HEK293T” value [5] was 98.90 and the “Cell viability, HEK293T, Data1” value [5] was 94.16. For the same substance, the “Cell viability, HEK293T, Data2” value [5] was 101.26 and the “Cell viability, HEK293T, Data3” value [5] was 101.26.
With SLEYLP [TaPep35] the “Average cell viability, HUVEC” value [1] was 100.35, the “Cell viability, HUVEC, Data1” value [1] was 100.75 and the “Cell viability, HUVEC, Data2” value [1] was 100.03. For the same substance, the “Cell viability, HUVEC, Data3” value [1] was 100.27, the “Average cell viability, BEAS-2B” value [2] was 109.54 and the “Cell viability, BEAS-2B, Data1” value [2] was 106.58. For the same substance, the “Cell viability, BEAS-2B, Data2” value [2] was 102.99, the “Cell viability, BEAS-2B, Data3” value [2] was 119.04 and the Umami ([3]; peptide 0.1 mg/mL) was 1.93. It also gave a Umami ([3]; peptide 1 mg/mL) of -4.82, a Bitter ([3]; sensor C00, peptide 0.1 mg/mL) of 7.64 and a Bitter ([3]; sensor C00, peptide 1 mg/mL) of 2.77. The Sour ([3]; sensor CA0, peptide 0.1 mg/mL) was -3.84, the Sour ([3]; sensor CA0, peptide 1 mg/mL) was 12.93 and the Salty ([3]; sensor CT0, peptide 0.1 mg/mL) was -20.10. It also gave a Salty ([3]; sensor CT0, peptide 1 mg/mL) of 10.87, a Sweet ([3]; sensor GL1, peptide 0.1 mg/mL) of 8.65 and a Sweet ([3]; sensor GL1, peptide 1 mg/mL) of -7.23. The “Average cell viability, HPNE” value [4] was 109.88, the “Cell viability, HPNE, Data1” value [4] was 105.12 and the “Cell viability, HPNE, Data2” value [4] was 118.20. For the same substance, the “Cell viability, HPNE, Data3” value [4] was 106.32, the “Average cell viability, HEK293T” value [5] was 98.64 and the “Cell viability, HEK293T, Data1” value [5] was 104.29. For the same substance, the “Cell viability, HEK293T, Data2” value [5] was 94.35 and the “Cell viability, HEK293T, Data3” value [5] was 97.29.
